Test results reported in patent US20260053958A1, “HALOGENATED SOMATOSTATIN ANALOGS WITH MULTIPLE SOMATOSTATIN RECEPTOR SUBTYPE SELECTIVITY” (GRAFTON THERAPEUTICS SÀRL, priority 2022, published 2026).
Numbered stars: 1 amine (or outer) side, 2 acyl side, 3 side chain; on linkers, the order of the positions; unused ones are H or OH. Bridge positions count the residues as written; N and C are the ends. Square brackets hold non-standard residues; d marks the D form. Peptide text beside a SMILES is read from it. ξ: configuration not given here. Tyr(3-Br) = N[C@@H](Cc1ccc(O)c(Br)c1)C(=O)O; Tyr(3-Cl) = N[C@@H](Cc1ccc(O)c(Cl)c1)C(=O)O; X2 = Nc1ccc(C[C@@H](N[*:1])C(=O)[*:2])cc1Br; X3 = Nc1ccc(C[C@@H](N[*:1])C(=O)[*:2])cc1Cl; X1 = Nc1ccc(C[C@@H](N[*:1])C(=O)[*:2])cc1F; Tyr(3-F) = N[C@@H](Cc1ccc(O)c(F)c1)C(=O)O; Thr(3ξ) = CC(O)[C@H](N)C(=O)O

How the values were obtained:
NT-3 cells [1] = test: Inhibition of insulin release from NT-3 cells (ELISA); type: cell-based, human; conditions: 5 days, in comparison to untreated NT-3 cells
Method: For the study, 24-well plates were coated with 1 mg/ml of human placenta-derived type IV collagen in 950 μL of PBS) and fully dried. NT3 cells were seeded at a density of 20,000 cells/well in complete culture medium (0.5 ml), including growth factors and incubated overnight at 37° C., with 5% CO2.
All drugs were administered at 5 nM and 10 nM and biological duplicates were studied. The treatment exposure period was 5 days. Untreated cell controls were also studied. After 5 days, the supernatants were collected and deposited into 1.5 ml test tubes that were then centrifuged at 13,400 rpm for 5 minutes to remove any cell residue. The samples were stored at −80° C. until the time of analysis.
Secreted insulin levels in the supernatant were studied using a Sandwich-ELISA method (Elabscience® Human Insulin ELISA Kit #E-EL-H2665) according to the manufacturer's instructions. A micro-ELISA plate was pre-coated with an antibody specific to human insulin. Samples or Standards were added to the micro-ELISA plate wells and combined with the specific antibody. Then a biotinylated detection antibody specific for human insulin and Avidin-Horseradish Peroxidase (HRP) conjugate were added successively to each micro plate well, incubated and then washed. Substrate solution was added to each well. Only those wells that contain human insulin, biotinylated detection antibody and Avidin-HRP conjugate appear blue in color. The enzyme-substrate reaction was terminated by the addition of stop solution. The optical density (OD) was measured spectrophotometrically at a wavelength of 450 nm±2 nm, and the concentration of human insulin was then derived from the standard curve.

SST2 [2] = biological target: T1, SST2 (Homo sapiens, UniProt P30874); test: cAMP HTRF assay; type: cell-based; design: expressed in transfected cells; host or cells: CHO-K1; conditions: CHO-K1 cells expressing SST2, forskolin, 30 min
T1 sequence (P30874 whole entry): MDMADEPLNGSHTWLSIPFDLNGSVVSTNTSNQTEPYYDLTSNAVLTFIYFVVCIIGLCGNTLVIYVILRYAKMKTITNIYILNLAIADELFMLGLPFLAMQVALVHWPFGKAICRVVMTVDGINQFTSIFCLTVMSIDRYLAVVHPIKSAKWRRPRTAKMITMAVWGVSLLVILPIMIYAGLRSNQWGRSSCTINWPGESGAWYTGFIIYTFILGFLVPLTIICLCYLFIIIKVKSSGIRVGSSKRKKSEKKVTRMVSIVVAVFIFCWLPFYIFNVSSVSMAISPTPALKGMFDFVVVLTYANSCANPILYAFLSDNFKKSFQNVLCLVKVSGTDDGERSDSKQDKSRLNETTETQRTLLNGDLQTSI
Method: (§1) Reference values thus obtained were compared to historical values obtained from the same receptor and used to validate the experimental session. […] For replicate determinations, the maximum variability tolerated in the test was ±20% around the average of replicates.
CHO-K1 cells (accession number NP_001041.1) expressing human recombinant receptor SST2 were grown prior to the test in media without antibiotic and were detached by gentle flushing with PBS-EDTA (5 mM EDTA).
In a 96-well plate, 12 μl of cells were mixed with 6 μl of the test compound at increasing concentrations and 6 μl of forskolin, then incubated for 30 min at room temperature. The final concentrations of test compound were 0.003 nM; 0.01 nM; 0.03 nM; 0.1 nM; 0.3 nM; 1 nM; 3 nM; 10 nM; 30 nM; and 100 nM. After addition of lysis buffer containing cAMP-d2 and anti-cAMP cryptate detection reagents, the plates were incubated for one hour at room temperature, and fluorescence ratios were measured using an HTRF kit according to the manufacturer specification. The results are shown below in Table 1 and in FIGS. 1A-1D.

NT-3 cells [3] = test: Inhibition of proliferation of NT-3 cells (WST-1 assay); type: cell-based, human; conditions: 5 nM, 5 days, in comparison to untreated NT-3 cells
Description: The water-soluble tetrazolium-1 (WST-1) assay is a standard method for assessing cell viability and proliferation in vitro. The WST-1 assay method is based on the cleavage of tetrazolium salts in culture medium to the dye, formazan, by active mitochondrial enzymes. As viable cell numbers change, so too does the action of mitochondrial dehydrogenases and cleavage of tetrazolium salts. The formation of formazan in the cell medium can be assayed spectrophotometrically as a measure of the number of living cells in the sample well. The effect of various compounds on the cell viability or proliferation rates can be measured as compared with controls or Standards.
All compounds were studied at a dose of 5 nM, and appropriate untreated controls were included.
NT-3 cells were seeded in complete RPMI-1640 medium (100 μl) into a 96-well microplate (20.000 cells/well). This was incubated at 37° C. in 5% CO2 to allow cells to adhere. Cells were treated with the test compounds at a concentration of 5 nM for a period of 5 days without changing the medium and without adding fresh compounds. […] The absorbance of the formazan dye was measured at 450 nm and 690 nm using a microplate reader. […] Average absorbance values were calculated for each group at 450 and 690 nm wavelengths and corrected for blank values. […]

AtT-20 cells = test: Inhibition of ACTH release from AtT-20 cells (ELISA); type: cell-based, mouse; conditions: 72 hours, in comparison to untreated AtT-20 cells
Method: AtT-20 cells were seeded in 24-well plates (20,000 cells/well) in complete culture medium and incubated overnight at standard incubator conditions (37° C., 5% CO2) to promote adhesion.
(§2) All compounds were studied at concentrations of 5 nM and 10 nM; untreated cell controls were also studied. A biological duplicate was reproduced for each concentration of each drug. The treatment exposure period was 72 h. At the 72 h time-point, cell supernatant was collected and deposited into 1.5 mL test tubes that were then centrifuged at 13,400 rpm for 5 minutes to remove any cell residues. The samples were stored at −80° C. until the time of analysis.
ACTH levels were quantified using a Sandwich-ELISA technique ((Abcam Mouse/Rat ACTH ELISA Kit #ab263880) according to the manufacturer's instructions. Samples and standards were added individually to the wells, followed by the antibody mix. After incubation, the wells were washed to remove unbound material, and development solution was added, which was catalysed, and the reaction was subsequently stopped. The signal was generated proportionally to the amount of bound analyte and the intensity was measured at 450 nm. Results are shown in Table 8 and in FIG. 4A-4E.

GH3 cells = test: Inhibition of GH release from GH3 cells (ELISA); type: cell-based, rat; conditions: 72 hours, in comparison to untreated GH3 cells
Method: as §2
GH levels in the supernatant were quantified using a Sandwich ELISA assay (Millipore Rat/Mouse Growth Hormone ELISA kit #EZRMGH-45K) according to the manufacturer's instructions. This method involved the initial capture of supernatant rat GH to the wells of a microtiter plate coated by a pre-titered amount of anti-Growth Hormone polyclonal antibodies. Unbound GH was washed away and then a second biotinylated anti-GH polyclonal antibody was bound to the captured GH molecules. Unbound GH was again washed away and there followed a step of conjugation of horseradish peroxidase to the immobilized biotinylated antibodies. After a final wash step, immobilized antibody-enzyme conjugates were quantified using horseradish peroxidase activities in the presence of the substrate 3,3′,5,5′-tetramethylbenzidine. The enzyme activity was measured spectrophotometrically. Concentrations of rat GH were derived by interpolation from a reference curve generated in the same assay with reference standards of known concentrations of rat GH.

SST5 = biological target: T2, SST5 (Homo sapiens, UniProt P35346); test: Radioligand binding competition assay against [125I]SS-14, SST5; conditions: CHO-K1 membrane extracts
T2 construct: expressed in transfected cells; host or cells: CHO-K1 (membrane extracts)
T2 sequence (P35346 whole entry): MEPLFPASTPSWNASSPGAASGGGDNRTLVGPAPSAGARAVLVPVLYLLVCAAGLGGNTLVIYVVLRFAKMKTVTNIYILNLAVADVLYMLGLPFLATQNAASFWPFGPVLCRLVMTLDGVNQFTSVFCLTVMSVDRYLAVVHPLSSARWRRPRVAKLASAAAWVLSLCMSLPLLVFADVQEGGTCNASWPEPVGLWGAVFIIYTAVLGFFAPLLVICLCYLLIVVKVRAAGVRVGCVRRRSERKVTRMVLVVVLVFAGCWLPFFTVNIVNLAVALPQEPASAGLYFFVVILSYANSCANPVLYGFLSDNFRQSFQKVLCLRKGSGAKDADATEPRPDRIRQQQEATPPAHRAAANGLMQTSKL
Method: as §1
(§3) For the SST2 assay, membrane extracts from CHO-K1 cells (accession number NP_001041.1) were used. For the SST5 assay, membrane extracts from CHO-K1 cells (accession number NP_001044.1) were used.
(§4) Nonspecific binding was determined by co-incubation with 200-fold excess of the cold competitor […]. The samples were incubated at a final volume of 0.1 mL at a temperature and for a duration optimized for each receptor and then filtered over filter plates. Filters were washed six times with 0.5 mL of ice-cold washing buffer (optimized for each receptor) and 50 μL of Microscint™ 20 (Packard) were added in each well. The plates were incubated 15 minutes on an orbital shaker and then counted with a TopCount™ for 1 min/well.

SST2 [4] = biological target: T1, SST2; test: Radioligand binding competition assay against [125I]SS-14, SST2; design: expressed in transfected cells; host or cells: CHO-K1 (membrane extracts); conditions: CHO-K1 membrane extracts
Method: as §1, §3, §4

With CC(C)[C@@H]1NC(=O)[C@H](CCCCN)NC(=O)[C@@H](Cc2c[nH]c3ccccc23)NC(=O)[C@H](Cc2ccc(O)c(F)c2)NC(=O)[C@H](NC(=O)[C@H](N)Cc2ccc(N)c(F)c2)CSSC[C@H](C(=O)N[C@H](C(N)=O)C(C)O)NC1=O (stereo partly drawn) [Compound 4, (4-amino-3-F)-D-Phe-c[Cys-(3-F)-Tyr-D-Trp-Lys-Val-Cys]-Thr-NH2] (H-[X1][dC][Tyr(3-F)][dW]KV[dC][Thr(3ξ)]-NH2; disulfide 2-7) the “Fold Change in Measured Insulin” value (NT-3 cells [1]; 5 nM) was 0.09, the “Fold Change in Measured Insulin” value (NT-3 cells [1]; 10 nM) was 0.10 and the EC50 (SST2 [2]) was 1.91 nM. For the same compound, the “Fold Change in Proliferation” value (NT-3 cells [3]) was 0.93, the “Fold Change in Measured ACTH” value (AtT-20 cells; 5 nM) was 0.37 and the “Fold Change in Measured ACTH” value (AtT-20 cells; 10 nM) was 0.37. For the same compound, the “Fold Change in Measured GH” value (GH3 cells; 5 nM) was 0.94, the “Fold Change in Measured GH” value (GH3 cells; 10 nM) was 0.76 and the IC50 (SST5; Table 7, third assay (Day 3)) was 3.41 nM. It also gave an IC50 (SST2 [4]; Table 4, third assay (Day 3)) of 2.6 nM.

In the case of CC(C)[C@@H]1NC(=O)[C@H](CCCCN)NC(=O)[C@@H](Cc2c[nH]c3ccccc23)NC(=O)[C@H](Cc2ccc(O)c(Cl)c2)NC(=O)[C@H](NC(=O)[C@H](N)Cc2ccc(N)c(I)c2)CSSC[C@H](C(=O)N[C@H](C(N)=O)C(C)O)NC1=O (single isomer, unassigned) [Compound 2, (4-amino-3-Cl)-D-Phe-c[Cys-(3-I)-Tyr-D-Trp-Lys-Val-Cys]-Thr-NH2], the IC50 (SST2 [4]; Table 2, first assay (Day 1)) is reported as 0.74 nM.

For CC(C)[C@@H]1NC(=O)[C@H](CCCCN)NC(=O)[C@@H](Cc2c[nH]c3ccccc23)NC(=O)[C@H](Cc2ccc(O)c(Br)c2)NC(=O)[C@@H](NC(=O)[C@H](N)Cc2ccc(N)c(Br)c2)CSSC[C@@H](C(=O)N[C@H](C(N)=O)[C@@H](C)O)NC1=O [Compound 5, (4-amino-3-Br)-D-Phe-c[Cys-(3-Br)-Tyr-D-Trp-Lys-Val-Cys]-Thr-NH2] (H-[X2]C[Tyr(3-Br)][dW]KVCT-NH2; disulfide 2-7), the “Fold Change in Measured Insulin” value (NT-3 cells [1]; 5 nM) was 0.12, the “Fold Change in Measured Insulin” value (NT-3 cells [1]; 10 nM) was 0.18 and the EC50 (SST2 [2]) was 0.16 nM. For the same compound, the “Fold Change in Proliferation” value (NT-3 cells [3]) was 0.52, the “Fold Change in Measured ACTH” value (AtT-20 cells; 5 nM) was 0.68 and the “Fold Change in Measured ACTH” value (AtT-20 cells; 10 nM) was 0.77. The “Fold Change in Measured GH” value (GH3 cells; 5 nM) was 0.72, the “Fold Change in Measured GH” value (GH3 cells; 10 nM) was 0.75 and the IC50 (SST5; Table 7, third assay (Day 3)) was 0.79 nM. It also gave an IC50 (SST2 [4]; Table 4, third assay (Day 3)) of 0.54 nM.

For CC(C)[C@@H]1NC(=O)[C@H](CCCCN)NC(=O)[C@@H](Cc2c[nH]c3ccccc23)NC(=O)[C@H](Cc2ccc(O)c(Cl)c2)NC(=O)[C@H](NC(=O)[C@H](N)Cc2ccc(N)c(Cl)c2)CSSC[C@H](C(=O)N[C@H](C(N)=O)C(C)O)NC1=O (stereo partly drawn) [Compound 3, (4-amino-3-Cl)-D-Phe-c[Cys-(3-Cl)-Tyr-D-Trp-Lys-Val-Cys]-Thr-NH2] (H-[X3][dC][Tyr(3-Cl)][dW]KV[dC][Thr(3ξ)]-NH2; disulfide 2-7), the “Fold Change in Measured Insulin” value (NT-3 cells [1]; 5 nM) was 0.62, the “Fold Change in Measured Insulin” value (NT-3 cells [1]; 10 nM) was 0.56 and the EC50 (SST2 [2]) was 0.25 nM. The “Fold Change in Measured ACTH” value (AtT-20 cells; 5 nM) was 0.68, the “Fold Change in Measured ACTH” value (AtT-20 cells; 10 nM) was 0.76 and the “Fold Change in Measured GH” value (GH3 cells; 5 nM) was 1.04. The “Fold Change in Measured GH” value (GH3 cells; 10 nM) was 1.02, the IC50 (SST5; Table 6, second assay (Day 2)) was 0.86 nM and the IC50 (SST2 [4]; Table 3, second assay (Day 2)) was 0.48 nM.

CC(C)[C@@H]1NC(=O)[C@H](CCCCN)NC(=O)[C@@H](Cc2c[nH]c3ccccc23)NC(=O)[C@H](Cc2ccc(O)c(Cl)c2)NC(=O)[C@H](NC(=O)[C@H](N)Cc2ccc(N)c(I)c2)CSSC[C@H](C(=O)N[C@H](C(N)=O)C(C)O)NC1=O (single isomer, unassigned) [Compound 1, (4-amino-3-I)-D-Phe-c[Cys-(3-Cl)-Tyr-D-Trp-Lys-Val-Cys]-Thr-NH2] showed an IC50 (SST2 [4]; Table 2, first assay (Day 1)) of 0.37 nM.
